# Measured values: ChEMBL document CHEMBL1158664, “New compounds with DNA strand-scission activity from the combined leaf and stem of Uvaria hamiltonii” (J Nat Prod, 1998)
# Activity calls are given as the source filed them. No cut-off for these calls is given here.
# What was measured:
# [1] = Induction of strand scission activity in DNA assessed as relaxation of supercoiled DNA at 25 ug/ml; set-up: scale not given: the % may be the effect or the level left
# [2] = Induction of strand scission activity in DNA assessed as ratio of 25 uM drug-induced to bleomycin-induced relaxation of supercoiled DNA
# [3] = Cytotoxicity against human 9KB cells; assay type: functional, cell-based
# [4] = Induction of strand scission activity in DNA assessed as relaxation of supercoiled DNA at 2.5 ug/ml; set-up: scale not given: the % may be the effect or the level left
# [5] = Induction of strand scission activity in DNA assessed as ratio of 2.5 uM drug-induced to bleomycin-induced relaxation of supercoiled DNA
Structure (SMILES),Activity [1],Activity [2],IC50 [3] [µg/mL],Activity [4] [%],Activity [5]
COc1cc2c(c(OC)c1OC)C(=O)CC(c1ccc(O)c(O)c1)O2 (racemic) [HAMILTONE B],76%,1,> 20,–,–
COc1cc(O)c(C(=O)/C=C/c2ccc(O)c(O)c2)c(OC)c1OC [HAMILCONE],47%,0.6,8,–,–
O=C(OC[C@@]12C=C[C@@H](OC(=O)c3ccccc3)[C@@H](O)[C@H]1Cc1cc(O)ccc1O2)c1ccccc1 [HEMILXANTHENE],inactive,inactive,10,–,–
COc1cc2c(c(OC)c1OC)C(=O)/C(=C/c1ccc(O)c(O)c1)O2,–,–,> 20,83,10
COc1ccc([C@@H]2CC(=O)c3c(cc(OC)c(O)c3OC)O2)cc1 [HAMILTONE A],88%,1.1,> 20,–,–
